Experimental data published in patent US9499529B2 (California State University Fresno, priority 2013, dated 2016).
pIC50: −log10 of the molar value.

Legend:
Assay type in all cases: cell-based, human
[1] = system: DU-145 prostate cancer cells; assay: In vitro cytotoxicity against DU-145 prostate cancer cells; details: DU-145 cells; for pIC50: five days
Procedure: (§1) The half maximal inhibitory concentration (IC50) is a measure of the effectiveness of a substance in inhibiting a specific biological or biochemical function. It is commonly used as a measure of antagonist drug potency.
Cell numbers were counted with a cell viability analyzer (Beckman-Coulter).
A preliminary dose response curve was prepared from the collected data by means well known to those of ordinary skill in the art.
(§2) The six different concentrations fell within a selected linear concentration range determined by reference to the preliminary dose response curve and efforts to estimate the concentration at which 50% of the cell growth would be inhibited. The selected six different concentrations were used to further fill out the dose response curve to pinpoint a more exact IC50 value.

[2] = system: PC-3 prostate cancer cells; assay: In vitro cytotoxicity against PC-3 prostate cancer cells; details: PC-3 cells; for pIC50: five days
Procedure: as §1
Cell cultures were maintained in 5% carbon dioxide at a temperature of 37° C. […] Cell numbers were counted with a cell viability analyzer (Beckman-Coulter). […] A preliminary dose response curve was prepared from the collected data by means well known to those of ordinary skill in the art.
as §2

[3] = system: HeLa cervical cancer cells; assay: HeLa cell viability after treatment with analog (cell count, cell viability analyzer); details: three days, relative to DMSO vehicle
Procedure: Cell numbers were counted with a cell viability analyzer (Beckman-Coulter). The ratio of drug treated viable cell numbers to control vehicle (DMSO) treated viable cell numbers was defined as percentage viability. […] Compound nos.
The HeLa cells used in the experiments summarized by Table 5 were cultured in RPMI-1640 medium supplemented with 10% FBS, 4 mM glutamine, 1 mM sodium pyruvate, 100 IU/mL penicillin, 100 ug/mL streptomycin and 0.25 ug/mL amphotericin. The HeLa cells were plated in 24-well plates at a density of 20,000 cells in each well in 10% FBS RPMI-1640. […] Cell numbers were counted with a cell viability analyzer (Beckman-Coulter). […]

SMILES: Cn1nccc1/C=C/C(=O)/C=C/c1ccnn1C [Compound 23]
- pIC50 [1]: 6.80
- pIC50 [2]: 5.72
- HeLa Cell viability after treatment with analog (% viability) ([3]; 1 μM): 59%
- HeLa Cell viability after treatment with analog (% viability) ([3]; 10 μM): 82.6%

SMILES: Cn1cc(C=C2CCCC(=Cc3cnn(C)c3)C2=O)cn1 [Compound 13]
- IC50 (curcumin)/IC50 (analog) [1]: 0.003
- pIC50 [1]: 4.05
- IC50 (curcumin)/IC50 (analog) [2]: 0.015
- pIC50 [2]: 3.89
- HeLa Cell viability after treatment with analog (% viability) ([3]; 1 μM): 97%
- HeLa Cell viability after treatment with analog (% viability) ([3]; 10 μM): 100%

SMILES: O=C1C(=Cc2nccs2)CCCC1=Cc1nccs1 [Compound 15]
- pIC50 [1]: 6.92
- IC50 (curcumin)/IC50 (analog) [2]: 18
- pIC50 [2]: 6.96
- HeLa Cell viability after treatment with analog (% viability) ([3]; 1 μM): 78%
- HeLa Cell viability after treatment with analog (% viability) ([3]; 10 μM): 9.7%

SMILES: Cc1nc(C=C2CCCC(=Cc3coc(C)n3)C2=O)co1 [Compound 17]
- IC50 (curcumin)/IC50 (analog) [1]: 0.18
- pIC50 [1]: 5.78
- IC50 (curcumin)/IC50 (analog) [2]: 1
- pIC50 [2]: 5.71
- HeLa Cell viability after treatment with analog (% viability) ([3]; 1 μM): 100%
- HeLa Cell viability after treatment with analog (% viability) ([3]; 10 μM): 59.5%

SMILES: Cc1cc(C=C2CN(C)CC(=Cc3cc(C)no3)C2=O)on1 [Compound 9]
- IC50 (curcumin)/IC50 (analog) [1]: 0.4
- pIC50 [1]: 6.16
- pIC50 [2]: 6.89
- HeLa Cell viability after treatment with analog (% viability) ([3]; 1 μM): 75.3%
- HeLa Cell viability after treatment with analog (% viability) ([3]; 10 μM): 27.8%

SMILES: O=C(/C=C/c1ccncc1F)/C=C/c1ccncc1F [Compound 36]
- HeLa Cell viability after treatment with analog (% viability) ([3]; 1 μM): 25.6%

SMILES: O=C(/C=C/c1cncs1)/C=C/c1cncs1 [Compound 29]
- HeLa Cell viability after treatment with analog (% viability) ([3]; 1 μM): 77%

SMILES: Cc1nc(C=C2CN(C)CC(=Cc3coc(C)n3)C2=O)co1 [Compound 7]
- pIC50 [1]: 7.12
- IC50 (curcumin)/IC50 (analog) [2]: 6.4
- pIC50 [2]: 6.51
- HeLa Cell viability after treatment with analog (% viability) ([3]; 1 μM): 59.5%
- HeLa Cell viability after treatment with analog (% viability) ([3]; 10 μM): 59.5%

SMILES: CC(C)Cn1ccnc1C=C1CCCC(=Cc2nccn2CC(C)C)C1=O [Compound 12]
- IC50 (curcumin)/IC50 (analog) [1]: 0.8
- pIC50 [1]: 6.44
- IC50 (curcumin)/IC50 (analog) [2]: 4.2
- pIC50 [2]: 6.33
- HeLa Cell viability after treatment with analog (% viability) ([3]; 1 μM): 100%
- HeLa Cell viability after treatment with analog (% viability) ([3]; 10 μM): 94.5%

SMILES: Cn1cc(/C=C/C(=O)/C=C/c2cnn(C)c2)cn1 [Compound 38]
- HeLa Cell viability after treatment with analog (% viability) ([3]; 1 μM): 92.8%

SMILES: CC(C)n1ccnc1C=C1CN(C)CC(=Cc2nccn2C(C)C)C1=O [Compound 1]
- pIC50 [1]: 6.85
- IC50 (curcumin)/IC50 (analog) [2]: 18
- pIC50 [2]: 6.96
- HeLa Cell viability after treatment with analog (% viability) ([3]; 1 μM): 126.94%
- HeLa Cell viability after treatment with analog (% viability) ([3]; 10 μM): 118.5%

SMILES: O=C(/C=C/c1cscn1)/C=C/c1cscn1 [Compound 25]
- pIC50 [1]: 7.02
- pIC50 [2]: 7.03
- HeLa Cell viability after treatment with analog (% viability) ([3]; 1 μM): 89%
- HeLa Cell viability after treatment with analog (% viability) ([3]; 10 μM): 13.7%

SMILES: Cc1noc(C)c1/C=C/C(=O)/C=C/c1c(C)noc1C [Compound 30]
- HeLa Cell viability after treatment with analog (% viability) ([3]; 1 μM): 67%

SMILES: CCC(C)n1ccnc1C=C1CN(C)CC(=Cc2nccn2C(C)CC)C1=O (stereo not drawn) [Compound 2]
- pIC50 [1]: 8.00
- pIC50 [2]: 5.18
- HeLa Cell viability after treatment with analog (% viability) ([3]; 1 μM): 111.1%
- HeLa Cell viability after treatment with analog (% viability) ([3]; 10 μM): 95.9%

SMILES: CN1CC(=Cc2nccs2)C(=O)C(=Cc2nccs2)C1 [Compound 5]
- pIC50 [1]: 7.34
- IC50 (curcumin)/IC50 (analog) [2]: 4.7
- pIC50 [2]: 6.38
- HeLa Cell viability after treatment with analog (% viability) ([3]; 1 μM): 51.7%
- HeLa Cell viability after treatment with analog (% viability) ([3]; 10 μM): 21.6%

SMILES: O=C1C(=Cc2cscn2)CCCC1=Cc1cscn1 [Compound 16]
- pIC50 [1]: 7.12
- IC50 (curcumin)/IC50 (analog) [2]: 16.5
- pIC50 [2]: 6.92
- HeLa Cell viability after treatment with analog (% viability) ([3]; 1 μM): 79%
- HeLa Cell viability after treatment with analog (% viability) ([3]; 10 μM): 15.8%

SMILES: Cn1nccc1C=C1CCCC(=Cc2ccnn2C)C1=O [Compound 14]
- IC50 (curcumin)/IC50 (analog) [1]: 0.41
- pIC50 [1]: 6.14
- IC50 (curcumin)/IC50 (analog) [2]: 7.6
- pIC50 [2]: 6.59
- HeLa Cell viability after treatment with analog (% viability) ([3]; 1 μM): 88%
- HeLa Cell viability after treatment with analog (% viability) ([3]; 10 μM): 71.4%

SMILES: Cc1csc(/C=C/C(=O)/C=C/c2nc(C)cs2)n1 [Compound 31]
- HeLa Cell viability after treatment with analog (% viability) ([3]; 1 μM): 52%

SMILES: CCC(C)n1ccnc1C=C1CCCC(=Cc2nccn2C(C)CC)C1=O (stereo not drawn) [Compound 11]
- pIC50 [1]: 6.60
- IC50 (curcumin)/IC50 (analog) [2]: 2
- pIC50 [2]: 6.08
- HeLa Cell viability after treatment with analog (% viability) ([3]; 1 μM): 100%
- HeLa Cell viability after treatment with analog (% viability) ([3]; 10 μM): 100%

SMILES: Cc1nc(/C=C/C(=O)/C=C/c2coc(C)n2)co1 [Compound 26]
- IC50 (curcumin)/IC50 (analog) [1]: 0.4
- pIC50 [1]: 6.12
- IC50 (curcumin)/IC50 (analog) [2]: 2.4
- pIC50 [2]: 6.08
- HeLa Cell viability after treatment with analog (% viability) ([3]; 1 μM): 100%
- HeLa Cell viability after treatment with analog (% viability) ([3]; 10 μM): 65.9%

SMILES: Cc1cc(C=C2CCCC(=Cc3cc(C)no3)C2=O)on1 [Compound 19]
- IC50 (curcumin)/IC50 (analog) [1]: 0.9
- pIC50 [1]: 6.47
- pIC50 [2]: 7.27
- HeLa Cell viability after treatment with analog (% viability) ([3]; 1 μM): 95%
- HeLa Cell viability after treatment with analog (% viability) ([3]; 10 μM): 15.9%

SMILES: CC(C)n1ccnc1C=C1CCCC(=Cc2nccn2C(C)C)C1=O [Compound 10]
- pIC50 [1]: 7.00
- pIC50 [2]: 6.80
- HeLa Cell viability after treatment with analog (% viability) ([3]; 1 μM): 114.9%
- HeLa Cell viability after treatment with analog (% viability) ([3]; 10 μM): 85.1%

SMILES: O=C(/C=C/c1cocn1)/C=C/c1cocn1 [Compound 37]
- HeLa Cell viability after treatment with analog (% viability) ([3]; 1 μM): 72.9%

SMILES: CN1CC(=Cc2ccnn2C)C(=O)C(=Cc2ccnn2C)C1 [Compound 4]
- IC50 (curcumin)/IC50 (analog) [1]: 0.18
- pIC50 [1]: 5.79
- IC50 (curcumin)/IC50 (analog) [2]: 1.9
- pIC50 [2]: 5.99
- HeLa Cell viability after treatment with analog (% viability) ([3]; 1 μM): 107.1%
- HeLa Cell viability after treatment with analog (% viability) ([3]; 10 μM): 67.4%

SMILES: O=C(/C=C/c1nccs1)/C=C/c1nccs1 [Compound 24]
- pIC50 [1]: 7.26
- pIC50 [2]: 7.17
- HeLa Cell viability after treatment with analog (% viability) ([3]; 1 μM): 68%
- HeLa Cell viability after treatment with analog (% viability) ([3]; 10 μM): 19.2%
